Results on one compound are retold here after patent US20130225694A1, “COMPOSITIONS AND METHODS OF INHIBITING RETINAL DEGENERATION” (Oklahoma Medical Research Foundation, priority 2012, published 2013).

Like-named read-outs stand apart in the source and are kept apart here.

In one data set the test system is rhodopsin. Put plainly: Rhodopsin regeneration after topical eye drops in mice. The data set is classed as in vivo, Balb/c mice. Particulars: for rhodopsin recovered in 1 h in the dark: 10% PBN eye drops, DA control is 100%. The procedure:
Panel A: Application scheme and harvesting of the eye. 3 h group received 2 applications and 6 h group received 3 applications. Panel B: Rhodopsin content was measured as pmole/eye. In 1 h in the dark, untreated eyes (NT-LA 1 h DA, no treatment-light adapted followed by 1 hour dark adaptation) and vehicle-treated eyes recovered 75-80% rhodopsin [dark-adapted (DA) control is 100%], whereas 3 h PBN recovered only 43% and 6 h PBN only 29%. (***P<0.0001 compared to vehicle, n=8; ##p<0.005 between 3 h and 6 h group, n=8).
An eye drop formulation was used with various absorption enhancers for topical application of PBN to mouse eyes. […] One hour dark adaptation followed by light causes 75-80% recovery of bleachable rhodopsin in the Balb/c mice (FIG. 18B, NT-LA 1 h DA). The eye drop without PBN (vehicle) had no effect on rhodopsin regeneration (FIG. 18B, vehicle).
Eye drop formulations were prepared as described in Example 7 and contained 5% or 10% of a PBN derivative. The eye drop formulations were applied to Balb/c mice by the 6 h group application scheme shown in FIG. 18A, in which the eye drops were applied at 6, 3, and 0 h before dark adaptation. The eye drops were applied to completely light-adapted mouse eyes, and the mice were then moved to the dark for 1 h to allow the regeneration of bleachable rhodopsin. One hour dark adaptation followed by light causes […] recovery of bleachable rhodopsin in untreated mice (00, No Treatment). The eye drop without any nitrones (vehicle) had no effect on rhodopsin regeneration (000, vehicle).

For the next data set, the target named is T1, RPE65 isomerohydrolase (Bos taurus, UniProt Q28175).
T1 construct: Bovine RPE microsomes were used as a source of the RPE65 protein; from tissue; host or cells: bovine RPE microsomes
T1 sequence (Q28175 whole entry): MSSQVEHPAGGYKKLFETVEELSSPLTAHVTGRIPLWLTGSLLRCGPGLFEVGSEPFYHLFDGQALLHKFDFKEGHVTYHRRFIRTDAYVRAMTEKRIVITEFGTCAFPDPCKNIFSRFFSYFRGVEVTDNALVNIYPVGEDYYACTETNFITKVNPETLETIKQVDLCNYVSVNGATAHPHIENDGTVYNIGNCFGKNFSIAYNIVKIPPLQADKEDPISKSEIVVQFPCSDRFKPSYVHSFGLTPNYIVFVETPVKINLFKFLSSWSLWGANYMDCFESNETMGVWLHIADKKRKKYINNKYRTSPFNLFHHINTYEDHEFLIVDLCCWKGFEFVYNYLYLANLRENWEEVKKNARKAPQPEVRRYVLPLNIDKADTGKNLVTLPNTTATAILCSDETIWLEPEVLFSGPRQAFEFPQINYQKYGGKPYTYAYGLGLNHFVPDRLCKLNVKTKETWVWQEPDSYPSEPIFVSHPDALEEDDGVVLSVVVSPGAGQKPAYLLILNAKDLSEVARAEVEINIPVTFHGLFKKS
Put plainly: In vitro RPE65 isomerohydrolase assay with bovine RPE microsomes (Example 3). The data set is classed as biochemical. An excerpt: In this Example, the effect of several PBN analogs on RPE65 isomerohydrolase activity was investigated in an in vitro assay. The chemical structures of the PBN analogs utilized are described herein above. Bovine RPE microsomes were used as a source of the RPE65 protein and all-trans-[^3H] retinol was a substrate for the isomerohydrolase assay. The produced 11-cis-[^3H] retinol was quantified by normal phase HPLC with flow scintillation analyzer. The inhibition of isomerohydrolase activity was dependent on the PBN analog's concentration.
FIG. 9 also illustrates the calculation of IC50 values for the two difluoro-PBN analogs. IC50 values are the concentration of the inhibitor that inhibits 50% of the enzymatic activity. Therefore, the smaller the IC50 value, the better the drug.

The test system of another data set is cone photoreceptors. The experiment in a line: Cone function by single-flash photopic and flicker-flash ERG in rats. The data set is classed as in vivo, rat. The note with it: 50 mg/kg, 60 minutes after administration, rod-suppressing background. As for the experimental part: To evaluate cone function under conditions in which rod recovery is suppressed, rats were injected with PBN (50 mg/kg) or saline 60 minutes prior to recording single-flash photopic and flicker-flash ERG recordings. Rats were placed under a steady adapting field of 1.7 log cd·s/m^2 for at least 7 minutes. A single flash of 3.3 log cd·s/m^2 was presented under the same adapting field to elicit a maximal cone response. Cone responses were further evaluated by presenting 1.2 log cd·s/m^2 stimuli flickering at frequencies of 3-, 10-, 20-, and 30-Hz under the same adapting field.
To assess the effect of PBN administration on cone function under conditions when rod recovery was suppressed, single- and flicker-flash ERG recordings were performed under a steady, rod-suppressing background illumination 60 minutes after PBN administration.

A further data set has as its system mouse retina. The experiment in a line: Light-damage protection by topical PBN eye drops in mice (ERG). The data set is classed as in vivo. Particulars: 10% PBN eye drop in V1 or V2; 3,000 lux 6 h; ERG five days after. The procedure:
After topical application of PBN, light-damage was done at 3,000 lux for 6 h. ERG response were recorded five days after light-damage. Two vehicles were used to solubilize and make 10% PBN eye drop formulation for topical application on mouse eye, vehicle 1 (V-1) and vehicle 2 (V-2).
After topical application of PBN, light-damage was done at 3,000 lux for 6 h. ERG responses were recorded five days after light-damage. Two vehicles were used to solubilize and make the 10% PBN eye drop formulation for topical application on mouse eyes, vehicle 1 (V-1) and vehicle 2 (V-2). […] Vehicle 1 contains 10 mM potassium borate/bicarbonate buffer (pH 7.2), glycerine, 1.0%, carboxymethylcellulose 0.3%, benzyl alcohol 0.3%, and 30% 1-methyl-2-pyrrolidinone (a solubilizing enhancer, a.k.a., N-Methyl-2-Pyrrolidone—“NMP”). Vehicle 2 contains 137 mM sodium chloride, 2.7 mM potassium chloride in 10 mM phosphate buffer (pH 7.4), and 30% 1-methyl-2-pyrrolidinone.

A further data set deals with Rat Retina. The note with it: 50 mg/kg 0.5 hour before light stress 2,700 lux for 24 hours; earlier publication (1); cited from earlier work.

One may read the IC50 as the concentration that inhibits the measured activity by half. As to `CC(C)(C)/[N+]([O-])=C/c1ccccc1` [Compound 1, α-phenyl-N-tert-butyl nitrone], the “rhodopsin recovered in 1 h in the dark” value in the data set with rhodopsin (3 h group (2 applications)) is 43%; in the data set with rhodopsin (6 h group (3 applications)), 29%. In addition, in the data set with rhodopsin (10% in eye drop at 6, 3 and 0 h before dark adaptation, LA + 1 h DA, DA control = 100), the “% of Rhodopsin recovery” value is given as 48.67%. For the same compound, the “inhibition of rhodopsin regeneration as eye drop” value with rhodopsin (eye drop formulation, summary of Table 7) is listed as “inhibited rhodopsin regeneration significantly”. In the data set with rhodopsin (one drop (~50 μl) containing 10% PBN, 1 h dark), the “regeneration of bleachable rhodopsin” value was “significantly inhibited”. Moreover, the IC50 on RPE65 isomerohydrolase (apparent IC50, bovine RPE microsomes, all-trans-[3H] retinol substrate (Table 1), read-out: IC50 Values for the Inhibition of RPE65 Isomerohydrolase Reaction) was 100 µM; on RPE65 isomerohydrolase (in vitro RPE65 isomerohydrolase IC50 values repeated in Table 7, read-out: IC50), 100 µM. Further, the “effect on cone function” value in the data set on cone photoreceptors is reported as “not affected”. Moreover, the “rod function (scotopic A-wave) after light-damage” value with mouse retina is reported as “significant restoration of rod function”. Also, in the data set on Rat Retina, the “protection of retinal structure and function” value is reported as 80-90%.
